Data published in EP4667483A1, “HUMAN TRANSFERRIN RECEPTOR-BINDING PEPTIDE” (JCR Pharmaceuticals Co., Ltd., priority 2023, dated 2024).
Like-named read-outs stand apart in the source and are kept apart here. Numbered stars: 1 amine (or outer) side, 2 acyl side, 3 side chain; on linkers, the order of the positions; unused ones are H or OH. Bridge positions count the residues as written; N and C are the ends. Square brackets hold non-standard residues; d marks the D form. Peptide text beside a SMILES is read from it. * marks the point of attachment. CH2CO(D-glucamine) = O=C(C*)NC[C@H](O)[C@@H](O)[C@H](O)[C@H](O)CO; NH(1-deoxy-D-glucityl) = OC[C@@H](O)[C@@H](O)[C@H](O)[C@@H](O)CN*; Trp(1-CH2COOH) = N[C@@H](Cc1cn(CC(=O)O)c2ccccc12)C(=O)O; NMePhe(4-COOH) = CN[C@@H](Cc1ccc(C(=O)O)cc1)C(=O)O; X1 = O=C([C@H](Cc1cccc(C(=O)[*:3])c1)N[*:1])[*:2]; Nle(6-morpholino) = N[C@@H](CCCCN1CCOCC1)C(=O)O; Phe(3-COOH) = N[C@@H](Cc1cccc(C(=O)O)c1)C(=O)O; Trp(7-aza) = N[C@@H](Cc1c[nH]c2ncccc12)C(=O)O; NH(CH2CH2O)8Me = COCCOCCOCCOCCOCCOCCOCCOCCN*; NMePhe(3-Cl) = CN[C@@H](Cc1cccc(Cl)c1)C(=O)O; 3Pal(6-NH2) = Nc1ccc(C[C@H](N)C(=O)O)cn1; NMeW = CN[C@@H](Cc1c[nH]c2ccccc12)C(=O)O; NMe3Pal = CN[C@@H](Cc1cccnc1)C(=O)O; NMeY = CN[C@@H](Cc1ccc(O)cc1)C(=O)O; Nva(3-Et) = CCC(CC)[C@H](N)C(=O)O; NMeF = CN[C@@H](Cc1ccccc1)C(=O)O; 4Pal = N[C@@H](Cc1ccncc1)C(=O)O; PEG4 = NCCOCCOCCOCCOCCC(=O)O; Carboxymethyl = O=C(O)C*

Molecular target: human transferrin receptor (hTfR) (Homo sapiens, UniProt P02786)
Sequence (P02786 whole entry): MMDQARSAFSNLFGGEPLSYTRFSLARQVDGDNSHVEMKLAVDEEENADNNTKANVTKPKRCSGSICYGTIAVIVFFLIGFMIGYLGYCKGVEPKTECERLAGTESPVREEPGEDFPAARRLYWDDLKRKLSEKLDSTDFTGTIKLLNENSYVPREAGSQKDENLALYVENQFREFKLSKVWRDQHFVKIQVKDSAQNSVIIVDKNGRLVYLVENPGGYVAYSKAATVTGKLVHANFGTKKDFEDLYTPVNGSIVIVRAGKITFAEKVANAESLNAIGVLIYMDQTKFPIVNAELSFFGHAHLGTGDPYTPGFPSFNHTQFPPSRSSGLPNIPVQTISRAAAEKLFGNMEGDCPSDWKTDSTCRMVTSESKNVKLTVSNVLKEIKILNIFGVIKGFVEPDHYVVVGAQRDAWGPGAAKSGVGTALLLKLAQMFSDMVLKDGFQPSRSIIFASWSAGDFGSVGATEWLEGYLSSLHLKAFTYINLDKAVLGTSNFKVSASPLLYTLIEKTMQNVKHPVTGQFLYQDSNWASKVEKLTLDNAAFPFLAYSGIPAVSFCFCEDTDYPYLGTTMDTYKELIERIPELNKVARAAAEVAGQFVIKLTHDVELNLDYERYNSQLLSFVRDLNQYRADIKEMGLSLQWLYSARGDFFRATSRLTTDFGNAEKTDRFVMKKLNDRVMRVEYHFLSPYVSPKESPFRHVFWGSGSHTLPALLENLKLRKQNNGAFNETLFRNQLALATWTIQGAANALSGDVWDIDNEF
Assay: SPR measurement under pH 7.4 conditions (Biacore T200, CM3 chip, hTfR captured by His Tag antibody)
Type: binding
Method: Molecular interactions between the synthesized peptides and the transferrin receptor (hTfR) were evaluated by surface plasmon resonance (SPR) using the following method. The specific assay procedure is described below.
An CM3 sensor chip (Cytiva) was inserted into BiacoreT200 (Cytiva), then a priming operation was performed three times by using a running buffer: HBS-P+, pH7.4 (Cytiva), and an equilibrium state was created at a flow rate of […]. Ligand immobilization was performed at a flow rate of 10 µL/min. After mixing 50 µL each of 60 mM EDC solution (Cytiva) and 650 mM NHS solution (Cytiva), the mixture was reacted at a flow rate of 10 µL/min for 420 seconds. 150 µL of […] THE His Tag Antibody, mAb, Mouse (GenScript) was prepared by diluting with 10 mM acetic acid solution (pH 5.0), and reacted at a flow rate of 10 µL/ min for 420 seconds. Then, THE His Tag Antibody, mAb, Mouse (GenScript) was immobilized as a capture molecule on the CM3 sensor chip. After immobilization, capping was performed by reacting with 1.0 M ethanolamine solution (Cytiva) at a flow rate of 10 µL/min for 420 seconds. 300 nM hTfR was captured at a flow rate of 10 µL/min, a peptide solution prepared at 10 mM in DMSO was diluted with running buffer to achieve a final concentration of 10 µM, and peptide solutions at 250 nM, 125 nM, 62.5 nM, 25 nM, and 12.5 nM were prepared. . The peptide samples were reacted at a flow late of 30 µL/min for 120 seconds, followed by dissociation for 600 seconds. The kinetics of the peptide against hTfR was obtained by SPR measurement for the above samples.
The kinetic evaluation model was single-cycle kinetics, and curve fitting was performed using Biacore T200 Evaluation Software Version 3.0 (Cytiva). The binding of the peptide to hTfR was evaluated by performing curve fitting on the obtained sensorgram by the least squares method and obtaining the kon value, the koff value, and the KD value.

[1] = SPR, pH 7.4, peptide with the linker named in the table, read-out: hTfR SPR pH7.4 KD

Structure (SMILES): CC[C@H](C)[C@@H]1NC(=O)[C@H](Cc2ccc(OCC(=O)NC[C@H](O)[C@@H](O)[C@H](O)[C@H](O)CO)cc2)NC(=O)[C@H](Cc2ccc(N)nc2)NC(=O)[C@H](CC(N)=O)NC(=O)[C@H](Cc2c[nH]c3ncccc23)NC(=O)[C@H](C(C)C)NC(=O)[C@H](Cc2cccc(Cl)c2)N(C)C(=O)[C@H](C(C)C)NC(=O)[C@H](C)NC(=O)CSC[C@@H](C(=O)NCCOCCOCCOCCOCCC(N)=O)NC(=O)[C@H](Cc2ccc(O)cc2)N(C)C(=O)[C@H](Cc2ccncc2)NC(=O)[C@H](CCCCN2CCOCC2)NC(=O)[C@H](CCC(=O)NC[C@H](O)[C@@H](O)[C@H](O)[C@H](O)CO)NC(=O)[C@H]([C@@H](C)CC)NC1=O [compound 13] ({CH2CO}-AV[NMePhe(3-Cl)]V[Trp(7-aza)]N[3Pal(6-NH2)]Y(CH2CO(D-glucamine))IIE(NH(1-deoxy-D-glucityl))[Nle(6-morpholino)][4Pal][NMeY]C[PEG4]-NH2; thioether N-15)
- Kd (pH 7.4, single-cycle kinetics, read-out: hTfR SPR pH7.4 KD): 0.0114 µM

Structure (SMILES): CCC(CC)[C@@H]1NC(=O)[C@H](Cc2ccc(OCC(=O)O)cc2)NC(=O)[C@H](Cc2ccc(N)nc2)NC(=O)[C@H](CC(N)=O)NC(=O)[C@H](Cc2c[nH]c3ccccc23)NC(=O)[C@H](C(C)C)NC(=O)[C@H](Cc2cccc(Cl)c2)N(C)C(=O)[C@H](C(C)C)NC(=O)[C@H](C)NC(=O)CSC[C@@H](C(=O)NCCOCCOCCOCCOCCC(N)=O)NC(=O)[C@H](Cc2ccc(C(=O)O)cc2)N(C)C(=O)[C@H](Cc2cccc(C(=O)O)c2)NC(=O)[C@H](CCCNC(=N)N)NC(=O)[C@H](CCC(=O)NCCOCCOCCOCCOCCOCCOCCOCCOC)NC(=O)[C@H]([C@@H](C)CC)NC1=O [compound 85] ({CH2CO}-AV[NMePhe(3-Cl)]VWN[3Pal(6-NH2)]Y(Carboxymethyl)[Nva(3-Et)]IE(NH(CH2CH2O)8Me)R[Phe(3-COOH)][NMePhe(4-COOH)]C[PEG4]-NH2; thioether N-15)
- Kd (SPR, pH 7.4, read-out: hTfR SPR pH7.4 KD): 0.234 µM

Structure (SMILES): CCC(CC)[C@@H]1NC(=O)[C@H](Cc2ccc(OCC(=O)O)cc2)NC(=O)[C@H](Cc2ccc(O)cc2)NC(=O)[C@H](CC(N)=O)NC(=O)[C@H](Cc2cn(CC(=O)O)c3ccccc23)NC(=O)[C@H](C(C)C)NC(=O)[C@H](Cc2cccc(Cl)c2)N(C)C(=O)[C@H](C(C)C)NC(=O)[C@H](C)NC(=O)CSC[C@@H](C(=O)NCCOCCOCCOCCOCCC(N)=O)NC(=O)[C@H](Cc2cccnc2)N(C)C(=O)[C@H](Cc2cccc(C(=O)O)c2)NC(=O)[C@H](CCCNC(=N)N)NC(=O)[C@H](CCC(N)=O)NC(=O)[C@H]([C@@H](C)CC)NC1=O [compound 97] ({CH2CO}-AV[NMePhe(3-Cl)]V[Trp(1-CH2COOH)]NYY(Carboxymethyl)[Nva(3-Et)]IQR[Phe(3-COOH)][NMe3Pal]C[PEG4]-NH2; thioether N-15)
- Kd [1]: 0.0226 µM

Structure (SMILES): CC[C@H](C)[C@@H]1NC(=O)[C@H](Cc2ccc(O)cc2)NC(=O)[C@H](Cc2ccc(O)cc2)NC(=O)[C@H](CC(N)=O)NC(=O)[C@H](Cc2c[nH]c3ccccc23)N(C)C(=O)[C@H](C(C)C)NC(=O)[C@H](Cc2ccccc2)N(C)C(=O)[C@H](C(C)C)NC(=O)[C@H](C)NC(=O)CSC[C@@H](C(=O)NCCOCCOCCOCCOCCC(N)=O)NC(=O)[C@H](Cc2ccc(C(=O)O)cc2)N(C)C(=O)[C@H](Cc2cccc(C(=O)NCCOCCOCCOCCOCCC(=O)O)c2)NC(=O)[C@H](CCCNC(=N)N)NC(=O)[C@H](CCCCN)NC(=O)[C@H]([C@@H](C)CC)NC1=O [compound 121] ({CH2CO}-AV[NMeF]V[NMeW]NYYIIKR[X1](PEG4)[NMePhe(4-COOH)]C[PEG4]-NH2; thioether N-15)
- Kd [1]: 0.00184 µM

Structure (SMILES): CC[C@H](C)[C@@H]1NC(=O)[C@H](Cc2ccc(OCC(=O)N3CCN(CC(=O)O)CC3)cc2)NC(=O)[C@H](Cc2ccc(N)nc2)NC(=O)[C@H](CC(N)=O)NC(=O)[C@H](Cc2c[nH]c3ncccc23)NC(=O)[C@H](C(C)C)NC(=O)[C@H](Cc2cccc(Cl)c2)N(C)C(=O)[C@H](C(C)C)NC(=O)[C@H](C)NC(=O)CSC[C@@H](C(=O)NCCOCCOCCOCCOCCC(N)=O)NC(=O)[C@H](Cc2ccc(O)cc2)N(C)C(=O)[C@H](Cc2ccncc2)NC(=O)[C@H](CCCNC(=N)N)NC(=O)[C@H](CCC(=O)NCCOCCOCCOCCOCCOCCOCCOCCOC)NC(=O)[C@H]([C@@H](C)CC)NC1=O [compound 153]
- Kd (SPR, pH 7.4, Table 2-1-2, read-out: hTfR SPR pH7.4 KD(n M)): 0.0443 µM
